The values below come from PubChem BioAssay AID1996.

The structures appear in SMILES notation. In brackets after ≈: the same amount, converted by molar mass.

A word on the kinetic solubility: it is the concentration staying in solution when a stock, usually in DMSO, is diluted into the medium.

For this data set the following is noted: buffer; pH 7.4; 200.0 µM.
In turn, `CCCS(=O)(=O)N1CCCC(C(=O)N2CCCCC2)C1` (stereo not drawn) had a kinetic solubility of 43 µg/mL (≈ 142 µM). Compound `O=C(NCc1ccccc1)c1cc2ccccc2oc1=O` showed a solubility (kinetic) of 2.7 µg/mL (≈ 9.67 µM). The figure for `Cc1onc(-c2c(Cl)cccc2Cl)c1C(=O)NN1CCCCCC1` is greater than 55.2 µg/mL; for `COc1ccc(OC)c(NC(=O)c2csc(Cl)c2OC)c1` it is less than 0.7 µg/mL.

For the compound `Cn1cc(S(=O)(=O)Nc2ccc(OC(F)(F)F)cc2)c(=O)n(C)c1=O`, the kinetic solubility was greater than 56.9 µg/mL.

With `CC(C)(C)NCC(O)CON=C1c2ccccc2-c2ccccc21` (stereo not drawn), the kinetic solubility is 44.1 µg/mL (≈ 136 µM). As for `O=C(Nc1ccc(Cl)cc1)C1CCCC1`, the kinetic solubility amounted to 15.8 µg/mL (≈ 70.6 µM). In turn, `CC(OC(=O)Cn1ccccc1=O)C(=O)Nc1cc(Cl)cc(Cl)c1` (stereo not drawn) gave a solubility (kinetic) greater than 55.4 µg/mL. As for `C=CCNC(=O)c1c(O)c2cccc3c2n(c1=O)CCC3`, the figure is less than 0.3 µg/mL; as for `Cc1cc(C)c(NC(=O)COC(=O)c2ccncc2)c(C)c1`, 35.6 µg/mL (≈ 119 µM); as for `COc1ccc(N/C=C/C(=O)c2ccccc2)cc1`, less than 0.5 µg/mL. `COc1ccc2[nH]c3c(NCCCOC(C)C)ncnc3c2c1` had a kinetic solubility of 44.7 µg/mL (≈ 142 µM). As to `Cc1ccccc1N=C1NC(=O)/C(=C/c2cccn2C)S1`, the kinetic solubility is 3.3 µg/mL (≈ 11.1 µM). In the case of `CSc1ccccc1NC(=O)CCc1ccccc1`, the kinetic solubility came to 35.5 µg/mL (≈ 131 µM). For the compound `CN(C)C(=O)c1ccc(NC(=O)c2ccccc2-c2ccccc2)cc1`, the kinetic solubility is greater than 51.7 µg/mL. As to `Br.COc1cccc(CNCC2CCCO2)c1` (stereo not drawn), the kinetic solubility turned out to be 44.1 µg/mL.

In turn, `CC(C)(C)C(=O)NC(=S)Nc1ccc(C(F)(F)F)cc1` displayed a solubility (kinetic) of 1.1 µg/mL (≈ 3.61 µM). The figure for `CC(CCc1ccccc1)NC(=O)CCC(=O)N1CCC(C(=O)O)CC1` (stereo not drawn) is greater than 54.1 µg/mL; for `Cc1cc(C)c(S(=O)(=O)NCCCn2ccnc2)cc1C` it is greater than 46.1 µg/mL. `CN(CC(=O)NCCCn1ccnc1)S(=O)(=O)c1ccc(Cl)cc1` gave a solubility (kinetic) greater than 55.6 µg/mL. Regarding `CC(=O)c1cn(CC(=O)Nc2ccccc2Cl)c2ccccc12`, the solubility (kinetic) worked out at 1 µg/mL (≈ 3.06 µM). Take `COc1ccc(-c2csc(NC(=O)Nc3ccccc3)n2)cc1`: the kinetic solubility came out at 1.8 µg/mL (≈ 5.53 µM). This solubility kinetic is about 1.8-fold higher than that of the compound before. As for `N#CCCN(C(=O)CSc1nc2ccccc2c(=O)[nH]1)c1ccc(F)cc1`, the figure is greater than 57.4 µg/mL. Regarding `COc1ccccc1NC(=O)NCCc1c[nH]c2ccccc12`, the kinetic solubility turned out to be 41.1 µg/mL (≈ 133 µM). On to `CCOC(=O)c1ccc(Nc2ncccc2[N+](=O)[O-])cc1`, for which the kinetic solubility was 1 µg/mL (≈ 3.48 µM). As for `CCN1C(=O)c2ccc(C(=O)Nc3ncc(C)s3)cc2C1=O`, the kinetic solubility was determined as 5.8 µg/mL (≈ 18.4 µM).

Compound `N#CCc1cccnc1Sc1ccc(Cl)cc1` had a kinetic solubility greater than 39.1 µg/mL.

Compound `CCOCCn1c2ccccc2c2nc3ccccc3nc21` had a kinetic solubility of 4.1 µg/mL (≈ 14.1 µM). The figure for `O=S(=O)(c1cccs1)N1CCN(c2ccc(F)cc2)CC1` is 9.6 µg/mL (≈ 29.4 µM); for `O=C(CCN1CCOCC1)Nc1ccc(F)cc1` it is 30.1 µg/mL (≈ 119 µM); for `COc1ccc(NC(=O)COC(=O)C2CCN(C(=O)c3ccc(Cl)cc3)CC2)c([N+](=O)[O-])c1` it is 22.4 µg/mL (≈ 47.1 µM). In the case of `O=C(NC(=S)Nc1cc([N+](=O)[O-])ccc1O)c1cccnc1`, the solubility (kinetic) is 13.5 µg/mL (≈ 42.4 µM). The figure for `O=C(NNC(=S)NC(=O)c1ccc(F)cc1)c1ccncc1` is greater than 47.7 µg/mL. As for `Cc1ccc(C)c(OCC(=O)Nc2ccc(N3CCOCC3)cc2)c1`, the figure is 6.1 µg/mL (≈ 17.9 µM). The figure for `CC(C)C(OC(=O)c1cccs1)C(=O)NCc1ccccc1` (stereo not drawn) is 29.4 µg/mL (≈ 92.6 µM); for `Cc1ccc(/C=C(\C#N)C(=O)NC(C)C)o1` it is greater than 32.7 µg/mL; for `Cc1ncc(CSc2nccc(=O)[nH]2)c(CO)c1O` it is greater than 41.9 µg/mL. Consider `COCCN1C(=O)NC(=O)/C(=C\c2ccc(F)cc2)C1=O`, for which the solubility (kinetic) worked out at 33.5 µg/mL (≈ 115 µM).

For `CSCCC1NC(=O)N(CC(=O)Nc2ccc(Cl)c(S(=O)(=O)N3CCOCC3)c2)C1=O` (stereo not drawn), the solubility (kinetic) was greater than 73.6 µg/mL. `O=C(O)c1ccc2c(c1)C(=O)N(CCc1ccccc1)C2=O` yielded a solubility (kinetic) greater than 44.3 µg/mL. Compound `COc1ccccc1C(=O)Nc1nc2ccccc2[nH]1` showed a solubility (kinetic) of 4.2 µg/mL (≈ 15.7 µM). `COc1ccccc1CNC(=O)C1CCCC1`: the solubility (kinetic) was greater than 35 µg/mL.

For `O=[N+]([O-])c1ccccc1S(=O)(=O)Nc1ccc2c(c1)OCCO2`, the solubility (kinetic) was greater than 50.4 µg/mL.

Compound `Cc1nc2cc(NC(=O)Nc3cccc(F)c3)ccc2n1C` registered a solubility (kinetic) of 3.3 µg/mL (≈ 11.1 µM). Take `O=C(O)C1CCC(CNS(=O)(=O)c2ccc(Cl)cc2)CC1` (stereo not drawn): the solubility (kinetic) was determined as 43 µg/mL (≈ 130 µM). Compound `O=C(COC(=O)c1ccco1)NCCc1ccc(Cl)cc1` returned a kinetic solubility greater than 46.2 µg/mL. `O=C(O)C1C2CCC(C2)C1C(=O)NCCc1ccccc1` (stereo not drawn) gave a kinetic solubility of 42.9 µg/mL (≈ 149 µM). The compound `CC(C)Oc1cccc(C(=O)C2CCCN(C3CCOCC3)C2)c1` (stereo not drawn) returned a solubility (kinetic) of 31 µg/mL (≈ 93.5 µM). The compound `CS(=O)(=O)N1CCSC1c1ccc(Br)cc1` (stereo not drawn) registered a kinetic solubility of 47.8 µg/mL (≈ 148 µM).

In turn, `CSc1nc(S(=O)(=O)c2ccc(C)cc2)c(Cl)s1` showed a solubility (kinetic) of 10 µg/mL (≈ 31.3 µM).

Take `COc1ccc(C(=O)CSc2nccn2C)c(OC)c1`: the solubility (kinetic) is greater than 43.9 µg/mL.

Consider `c1ccc(Oc2ncnc3sccc23)cc1`, for which the kinetic solubility was determined as 25.1 µg/mL (≈ 110 µM).

The compound `Fc1ccc(C(CCNCc2cccs2)c2ccco2)cc1` (stereo not drawn) registered a kinetic solubility of 34.2 µg/mL (≈ 108 µM). The figure for `CCn1c(C)c(C(=O)Nc2ccc(OC)cc2)c2cc(OC)ccc21` is 0.4 µg/mL (≈ 1.18 µM); for `Cc1ccc(S(=O)(=O)N2CC=C(C(=O)NC3CC3)CC2)cc1` it is 40.5 µg/mL (≈ 126 µM); for `CN(C(=O)c1ccnn1C)C1CCCN(Cc2ccccc2F)C1` (stereo not drawn) it is greater than 49.6 µg/mL.

As for `CCOc1ccc2oc(-c3ccccc3)c(C(N)=O)c2c1`, the solubility (kinetic) is less than 0.6 µg/mL. Compound `Cc1c(C(=O)O)nn(-c2cccc(C(F)(F)F)c2)c(=O)c1C#N` displayed a solubility (kinetic) greater than 48.5 µg/mL. The figure for `CCC(=NCc1cccnc1)c1c(O)n(-c2ccccc2C)c(=O)[nH]c1=O` is greater than 54.7 µg/mL; for `COc1cc(C(=O)NCCCc2ccccc2)cc(OC)c1OC` it is greater than 49.4 µg/mL. As for `Cl.O=c1cc(CN2CCNCC2)nc2sccn12`, the figure is 44 µg/mL.

For `CCC(=O)N1CCCC(C(=O)c2ccc(-c3ccccc3)cc2)C1` (stereo not drawn), the kinetic solubility came to 29.9 µg/mL (≈ 93 µM). This solubility kinetic and that of the compound before are within 1.5-fold of each other.

In turn, `Clc1ccc(-c2cc(CN3CCCCC3)no2)cc1Cl` displayed a kinetic solubility of 0.4 µg/mL (≈ 1.29 µM). Take `N#Cc1ccccc1NC(=S)NC(=O)c1cccnc1`: the solubility (kinetic) was determined as 28.9 µg/mL (≈ 102 µM).

In turn, `Nc1cc(Cl)ccc1C(=O)OCC(=O)NCc1cccs1` returned a kinetic solubility of 7.7 µg/mL (≈ 23.7 µM). Compound `CN(C)CCNC(=O)Cc1ncc(C(F)(F)F)cc1Cl` returned a kinetic solubility greater than 46.5 µg/mL. On to `CCCCNC(=O)COCc1cc(-c2ccc3c(c2)OCO3)on1`, for which the kinetic solubility was 19.5 µg/mL (≈ 58.7 µM). In turn, `O=C(Nc1ccc(O)cc1)c1ccc(NC(=O)c2cccs2)cc1` came in with a kinetic solubility of 0.8 µg/mL (≈ 2.36 µM).

With `Cc1ccsc1C(=O)C1CCCN(Cc2cnc(N)nc2)C1` (stereo not drawn), the kinetic solubility amounted to 37.8 µg/mL (≈ 119 µM). `O=C1CC(N2CCN(c3ccc(F)cc3)CC2)C(=O)N1c1ccccc1` (stereo not drawn) registered a kinetic solubility of 49.4 µg/mL (≈ 140 µM). The figure for `COc1ccc(CNC(=O)c2cc3cc(OC)ccc3oc2=O)cc1` is less than 0.7 µg/mL.

On to `CC#CC(=O)N1CCCC(C(=O)c2ccc(SC)cc2)C1` (stereo not drawn), for which the solubility (kinetic) is greater than 45.2 µg/mL. The compound `Cc1cc(=O)oc2cc(OCC(=O)Nc3cccnc3)ccc12` had a solubility (kinetic) of 10.5 µg/mL (≈ 33.8 µM). As for `CC(=O)Nc1c(-c2ccccc2)nc2cc(C)ccn12`, the figure is 29.4 µg/mL (≈ 111 µM); as for `Nc1ccc(N2CCN(c3ccccc3)CC2)c(F)c1`, greater than 40.7 µg/mL.

In the case of `N#Cc1ccc(-c2nc3ccccc3c(=O)n2O)cc1`, the solubility (kinetic) is greater than 39.5 µg/mL. For the compound `COc1ccc(-c2cc3ccccc3nc2N)cc1OC`, the kinetic solubility stood at 3 µg/mL (≈ 10.7 µM). `CCOc1ccc(NC(=S)NC(=O)c2cccnc2)c([N+](=O)[O-])c1` came in with a kinetic solubility of 4.3 µg/mL (≈ 12.4 µM). As to `Cc1onc(-c2c(F)cccc2Cl)c1C(=O)N1CCCCC1`, the kinetic solubility was greater than 48.4 µg/mL. On to `Cc1cccc(C(C)C)c1NC(=O)CSc1cccc[n+]1[O-]`, for which the solubility (kinetic) was greater than 47.5 µg/mL. As for `O=C(NCC1CCCO1)c1ccc(NC(=O)c2cccc(Cl)c2)cc1` (stereo not drawn), the figure is 2.5 µg/mL (≈ 6.97 µM); as for `COCCCN1CN(Cc2ccco2)CNC1=S`, greater than 40.4 µg/mL.

For the compound `O=C(O)CC(CC(=O)Nc1ccc(Oc2ccccc2)cc1)c1ccccc1` (stereo not drawn), the kinetic solubility was greater than 56.3 µg/mL.

Take `O=C1NC(Cc2c[nH]c3ccccc23)C(=O)N1Cc1ccccc1` (stereo not drawn): the solubility (kinetic) is greater than 47.9 µg/mL. As for `O=C(COC(=O)c1cc(S(=O)(=O)N2CCOCC2)ccc1F)NCc1ccc2c(c1)OCO2`, the figure is greater than 72.1 µg/mL. With `O=C(COC(=O)C1CCCCC1)Nc1cccc(F)c1`, the kinetic solubility was greater than 41.9 µg/mL. As for `Nc1cc(=O)[nH]c(SCC(=O)Nc2cccc(S(=O)(=O)N3CCCCC3)c2)n1`, the figure is greater than 63.5 µg/mL. The figure for `CC1CCN(C(=O)c2ccccc2NC(=O)c2cccc(S(=O)(=O)N(C)C)c2)CC1` is 63.9 µg/mL (≈ 149 µM); for `CCc1ccc(CNC(=O)CCc2cn(C)c3ccccc23)cc1` it is 1.2 µg/mL (≈ 3.74 µM).

As to `COC(=O)c1ccc(COc2ncnc3ccccc23)o1`, the solubility (kinetic) is greater than 42.6 µg/mL. For `O=C(CCNC(=O)c1ccccc1Cl)NCc1cccnc1`, the kinetic solubility was greater than 47.7 µg/mL. The figure for `COc1cc(/C=C/C(=O)OCC(=O)NC(=O)NCc2ccco2)ccc1OC(F)F` is 7.1 µg/mL (≈ 16.7 µM); for `Cc1c(C(=O)NC2=NCCS2)cccc1[N+](=O)[O-]` it is 37.5 µg/mL (≈ 141 µM); for `Cn1ccsc1=NC(=O)c1ccc(S(C)(=O)=O)cc1` it is greater than 44.5 µg/mL. Regarding `Cc1nnc(SCC(=O)NC2CC2)s1`, the kinetic solubility is greater than 34.4 µg/mL. As to `O=C(Cc1ccsc1)NCC(=O)Nc1ccccc1Br`, the kinetic solubility was greater than 53 µg/mL. Take `N#Cc1c(-c2ccc(F)cc2)ccnc1N1CCOCC1`: the solubility (kinetic) was greater than 42.5 µg/mL. As for `CC(C)C(NC(=O)c1c(F)cccc1F)C(=O)N1CCN(c2ncccn2)CC1` (stereo not drawn), the solubility (kinetic) turned out to be 12.1 µg/mL (≈ 30 µM). Consider `O=S(=O)(Nc1ccncc1Cl)c1cccc(Cl)c1Cl`, for which the solubility (kinetic) was greater than 50.6 µg/mL.

`O=C(O)c1ccccc1NCc1cccnc1`: the kinetic solubility is greater than 34.2 µg/mL. `CC(=O)Nc1ccc(NC(=O)Nc2ccccc2C)cc1` registered a solubility (kinetic) of 1.8 µg/mL (≈ 6.35 µM).

`COc1ccc(NC(=O)COC(=O)Cc2coc3cc(OC)ccc23)c(OC)c1`: the solubility (kinetic) is 11.8 µg/mL (≈ 29.5 µM). The compound `CCc1ccc(NC(=O)Cn2cc([N+](=O)[O-])nc2C)cc1` yielded a kinetic solubility of 6.7 µg/mL (≈ 23.2 µM). Compared with the last compound, the solubility kinetic is about 1.8-fold lower.
